Laboratory results as given in patent US8058243B2, “Method for treating a brain cancer with ifenprodil” (HSC Research and Development Limited Partnership, priority 2006, dated 2011).
Structures can show the parent of a compound that is named as a salt. Where two headings read alike, the source gives them in different places.

Test system: murine neural precursor cells (neurosphere cultures)
Assay: HTS of LOPAC library against secondary neurosphere cultures, MTT proliferation assay at 3 μM, day 7 (z score, P value)
Format: cell-based, mouse
[1] = yes = significantly inhibited neurosphere proliferation (P<0.01) in the primary screen
[2] = LOPAC library screen at 3 μM, MTT, secondary neurosphere cultures, screened in singlets
[3] = LOPAC primary screen, neurosphere MTT proliferation, 3 μM, day 7
[4] = yes/no: significantly inhibited neurosphere proliferation (P<0.01) in primary screen
[5] = LOPAC library screen, 3 μM, MTT, secondary neurosphere cultures, day 7
[6] = yes/no: significantly inhibited neurosphere proliferation (P<0.01) in the primary screen
[7] = LOPAC screen, neurosphere MTT proliferation, 3 μM, day 7
[8] = yes/no: significantly inhibited neurosphere proliferation in primary screen
[9] = primary LOPAC screen, 3 μM, MTT, neurosphere proliferation
[10] = yes/no: significantly inhibited neurosphere proliferation in the primary screen
[11] = LOPAC library screen at 3 μM, secondary neurosphere cultures, MTT
[12] = LOPAC library screen, 3 μM, MTT, neurosphere cultures

## Cc1cccc(C#Cc2ccccc2)n1.Cl [6-Methyl-2-(phenylethynyl)pyridine hydrochloride]
168 h, 3 µM
  Z Score: 0.09366
  Z score: 0.094
[1]
  Activity: no

## Cc1oncc1C(=O)Nc1ccc(C(F)(F)F)cc1 [Leflunomide]
[2]
  Z Score: 4.103
[3]
  Z score: 4.103
[4]
  Activity: no

## CN(C)CCC(c1ccc(Br)cc1)c1ccccn1.O=C(O)/C=C\C(=O)O (single isomer, unassigned; (+)) [(+)-Brompheniramine maleate]
[5]
  Z Score: −3.976
[3]
  Z score: −3.976
[6]
  Activity: yes

## COc1ccccc1CNCCCCCCNCCCCCCCCNCCCCCCNCc1ccccc1OC [Methoctramine (31), Methoctramine, reference compound]
168 h, 3 µM
  Z Score: −7.012
  Z score: −7.012
[6]
  Activity: yes

## Cl.Oc1cc2c(cc1O)C(c1ccccc1)CNCC2 (racemic) [(±)-SKF-38393 hydrochloride]
  Activity: no
[7]
  Z score: 1.280

## S-(−)-Lisuride
  Z Score: −0.1473
  Z score: −0.147

## CCCCCN(CCCCC)C(=O)C(CCC(=O)O)NC(=O)c1ccc(Cl)c(Cl)c1 (centres unmarked) [Lorglumide sodium]
[5]
  Z Score: −2.092
[3]
  Z score: −2.092
[1]
  Activity: no

## COC(=O)C1=C(C)NC(C)=C(C(=O)OCCN(C)Cc2ccccc2)C1c1cccc([N+](=O)[O-])c1 (centres unmarked) [Nicardipine hydrochloride]
[2]
  Z Score: 1.869
[3]
  Z score: 1.869
[1]
  Activity: no

## Br.CCCN(CCC)C1CCc2ccc(O)cc2C1 (racemic) [(±)-7-Hydroxy-DPAT hydrobromide]
[3]
  Z score: −11.102
[6]
  Activity: yes

## COc1ccc(C2CNC(=O)C2)cc1OC1CCCC1 (centres unmarked) [Rolipram]
[5]
  Z Score: −2.091
[3]
  Z score: −2.091
[8]
  Activity: no

## CC(=O)Oc1ccccc1C(=O)O [Acetylsalicyclic acid]
[9]
  Z score: −0.481
[10]
  Activity: no

## CCCCNC(=O)NS(=O)(=O)c1ccc(C)cc1 [Tolbutamide]
  Activity: no
[11]
  Z Score: −0.3032
[9]
  Z score: −0.303

## CC(=O)CCCCn1c(=O)c2c(ncn2C)n(C)c1=O [Pentoxifylline]
[5]
  Z Score: −1.637
[3]
  Z score: −1.637
[8]
  Activity: no

## CN(C)CCC(c1ccccc1)c1ccccn1 (centres unmarked) [Pheniramine maleate]
[11]
  Z Score: −0.2062
[3]
  Z score: −0.206
[6]
  Activity: no

## NC(=O)c1cc(N2CC2)c([N+](=O)[O-])cc1[N+](=O)[O-] [CB 1954]
[11]
  Z Score: −1.07
[9]
  Z score: −1.070
[10]
  Activity: no

## C[N+](C)(C)CCC(=O)c1cccc2ccccc12.[I-] [2-(alpha-Naphthoyl)ethyltrimethylammonium iodide]
168 h, 3 µM
  Z Score: −6.762
  Z score: −6.762
[1]
  Activity: yes

## CC(N)(C(=O)O)c1ccc(C(=O)O)cc1 (racemic) [(±)-alpha-Methyl-4-carboxyphenylglycine]
[3]
  Z score: 0.727
[1]
  Activity: no

## CC(N)(Cc1ccc(O)c(O)c1)C(=O)O (racemic)
  Z Score: −1.894

## Cn1ccc2cc3c(cc21)CCN3C(=O)Nc1cccnc1 [SB 206553 hydrochloride]
  Z Score: −1.365
[9]
  Z score: −1.365
[10]
  Activity: no

## Cn1c(=O)c2c(ncn2C)n(C)c1=O [Caffeine]
[12]
  Z Score: 0.4113
[7]
  Z score: 0.411

## COc1ccc2c(c1)c(CC(=O)O)c(C)n2Cc1ccc(F)cc1 [1-(4-Fluorobenzyl)-5-methoxy-2-methylindole-3-acetic acid]
168 h, 3 µM
  Z Score: −0.5376
  Z score: −0.538
[4]
  Activity: no

## COc1[nH]c2ccc(F)cc2c1C(=O)OCC1CCN(CCNS(C)(=O)=O)CC1.NS(=O)(=O)O [GR 125487 sulfamate salt]
[11]
  Z Score: −0.1942
[3]
  Z score: −0.194
[4]
  Activity: no

## CCCN1CCc2cc(O)cc3c2[C@H]1Cc1ccc(O)c(O)c1-3
[3]
  Z score: −2.744
[6]
  Activity: yes

## NCC(CC(=O)O)c1ccc(Cl)cc1 (racemic) [(±)-Baclofen]
[7]
  Z score: −1.069
[4]
  Activity: no

## CN(Cc1cnc2nc(N)nc(N)c2n1)c1ccc(C(=O)N[C@@H](CCC(=O)O)C(=O)O)cc1 [Methotrexate]
[5]
  Z Score: −10.2
[3]
  Z score: −10.203
[6]
  Activity: yes

## CC(=O)c1ccc(S(=O)(=O)NC(=O)NC2CCCCC2)cc1 [Acetohexamide]
[5]
  Z Score: −2.24
[9]
  Z score: −2.240
[10]
  Activity: no

## C[N+](C)(C)CCOP(=O)([O-])OP(=O)([O-])OC[C@H]1O[C@@H](n2ccc(N)nc2=O)[C@H](O)[C@@H]1O.[Na+] [Citicoline sodium]
[11]
  Z Score: −0.1331
[7]
  Z score: −0.133
[4]
  Activity: no

## COc1cc([C@@H]2c3cc4c(cc3[C@H](O)[C@H]3COC(=O)[C@H]23)OCO4)cc(OC)c1OC [Podophyllotoxin]
  Z Score: −11.15
[3]
  Z score: −11.147
[6]
  Activity: yes

## C[C@]12CC[C@@H](O)C[C@@H]1CC[C@@H]1[C@@H]2CC[C@]2(C)[C@@H](C(=O)CO)CC[C@@H]12
  Z Score: 0.4441
[3]
  Z score: 0.444
[8]
  Activity: no

## NCC(CP(=O)(O)O)c1ccc(Cl)cc1 (centres unmarked) [Phaclofen]
  Z Score: 0.9701
[3]
  Z score: 0.970
[8]
  Activity: no

## Clc1cccc(Cl)c1N=C1NCCN1 [Clonidine hydrochloride]
[12]
  Z Score: 1.041
[7]
  Z score: 1.041
[4]
  Activity: no

## O=C(Nc1cccc(C(=O)Nc2ccc(S(=O)(=O)[O-])c3cc(S(=O)(=O)[O-])cc(S(=O)(=O)[O-])c23)c1)Nc1cccc(C(=O)Nc2ccc(S(=O)(=O)[O-])c3cc(S(=O)(=O)[O-])cc(S(=O)(=O)[O-])c23)c1.[Na+].[Na+].[Na+].[Na+].[Na+].[Na+] [NF 023]
  Z Score: 1.115
[3]
  Z score: 1.115
[1]
  Activity: no

## O=C1CC[C@@]2(O)[C@H]3Cc4ccc(O)c5c4[C@@]2(CCN3CC2CC2)[C@H]1O5 [Naltrexone hydrochloride]
[12]
  Z Score: 0.3891
[3]
  Z score: 0.389
[6]
  Activity: no

## O=c1cc(O)cc(/C=C/c2ccc(O)c(O)c2)o1 [Hispidin]
168 h, 3 µM
  Z Score: 0.8896
  Z score: 0.890
[4]
  Activity: no

## Br.COc1ccc(-c2ccc(=N)n(CCCC(=O)O)n2)cc1 [SR-95531]
  Activity: no
  Z Score: −0.9574
  Z score: −0.957

## NC[C@@H]1O[C@H](O[C@H]2[C@@H](O)[C@H](O[C@@H]3[C@@H](O)[C@H](N)C[C@H](N)[C@H]3O[C@H]3O[C@H](CO)[C@@H](O)[C@H](O)[C@H]3N)O[C@@H]2CO)[C@H](N)[C@@H](O)[C@@H]1O [Paromomycin sulfate]
[12]
  Z Score: 0.821

## CC(=O)[C@H]1CC[C@H]2[C@@H]3CC[C@H]4C[C@H](O)CC[C@]4(C)[C@H]3C(=O)C[C@]12C [5alpha-Pregnan-3alpha-ol-11,20-dione]
  Z Score: −0.8078
[3]
  Z score: −0.808

## CC1CCN(CC[C@H]2CCCN2S(=O)(=O)c2cccc(O)c2)CC1.Cl [SB 269970 hydrochloride]
  Z Score: −1.1
[3]
  Z score: −1.100
[8]
  Activity: no

## O=C1C=CC(=O)C=C1 [p-Benzoquinone]
  Activity: no
[5]
  Z Score: −1.571
[9]
  Z score: −1.571

## CN(C)S(=O)(=O)c1ccc2c(c1)/C(=C/c1cc3c([nH]1)CCCC3)C(=O)N2 [SU 6656]
  Z Score: 0.3165
[3]
  Z score: 0.316
[8]
  Activity: no

## O=C1O/C(=C/Br)CCC1c1cccc2ccccc12 (centres unmarked) [Bromoenol lactone]
168 h, 3 µM
  Z Score: 0.2484
  Z score: 0.248
[10]
  Activity: no

## (−)Amethopterin
[5]
  Z Score: −8.704
[3]
  Z score: −8.704
[6]
  Activity: yes

## CCCN1CCC[C@H](c2cccc(O)c2)C1.Cl [R(+)-3PPP hydrochloride]
  Z Score: −2.213
[3]
  Z score: −2.213
[8]
  Activity: no

## O=C(O)/C=C/c1ccc(O)c(O)c1 [Caffeic Acid]
[12]
  Z Score: 0.3199
[7]
  Z score: 0.320
[4]
  Activity: no

## CC1CN(S(=O)(=O)c2cccc3cnccc23)CCN1.Cl.Cl (centres unmarked) [1-(5-Isoquinolinylsulfonyl)-3-methylpiperazine dihydrochloride]
168 h, 3 µM
  Z Score: 0.4769
  Z score: 0.477
[4]
  Activity: no

## CC[N+](CC)(CC)CCOc1ccc(/C=C/c2ccccc2)cc1 [MG 624]
168 h, 3 µM
  Z Score: −10.66
  Z score: −10.660
[6]
  Activity: yes

## CC(=O)O[C@H]1C[C@@H]2CC[C@@H]3[C@H](CC[C@@]4(C)[C@H]3C[C@H]([N+]3(C)CCCCC3)[C@@H]4OC(C)=O)[C@@]2(C)C[C@@H]1[N+]1(C)CCCCC1 [Pancuronium bromide]
[12]
  Z Score: 0.4077
[3]
  Z score: 0.408
[8]
  Activity: no

## Cl.O=C(O)C1=CCCNC1 [Guvacine hydrochloride]
  Z Score: −1.345
[3]
  Z score: −1.345
[4]
  Activity: no

## Nc1nc2c(ncn2COCCO)c(=O)[nH]1 [Acyclovir]
[11]
  Z Score: −1.215
[3]
  Z score: −1.215
[6]
  Activity: no

## C[C@](N)(Cc1ccc(O)cc1)C(=O)O [L-alpha-Methyl-p-tyrosine]
  Z Score: −1.8
[3]
  Z score: −1.800
[1]
  Activity: no

## Nc1nc(SCc2ccc([N+](=O)[O-])cc2)c2ncn([C@@H]3O[C@H](CO)[C@@H](O)[C@H]3O)c2n1 [S-(4-Nitrobenzyl)-6-thioguanosine]
[12]
  Z Score: 0.1017
[3]
  Z score: 0.102
[8]
  Activity: no

## CCCCCCCCCCCCC/C=C/[C@@H](O)[C@@H](N)CO [Sphingosine]
  Z Score: 1.404
[3]
  Z score: 1.404
[8]
  Activity: no
